Data set [1] deals with T1, CYP2D6 (Homo sapiens, UniProt P10635). Kind of data set: Inhibition of CYPD6 in human liver microsome at 10 uM using dextromethorphan as substrate incubated for 10 mins in presence of NADPH cofactor by LC-MS/MS analysis. The class given is ADME. As to conditions: liver microsomes, probe dextromethorphan. On the technique in general: Microsomes from liver hold many membrane-bound enzymes, among them those of drug oxidation.

The test system of another data set is RAW264.7. The data set can be described thus: Cytotoxicity against mouse RAW264.7 cell assessed as inhibition of cell growth after 24 hrs by MTT assay. The class given is functional, cell-based. To be noted: RAW264.7, 24 h.
The subject of data set [2] is Candida albicans. The data set can be described thus: Potentiation of fluconazole-induced antifungal activity against fluconazole-resistant Candida albicans 901 assessed as fluconazole MIC by checker board microdilution assay. The class given is functional. On the technique in general: In broth dilution the organism is exposed to a series of concentrations in liquid medium.

Data set [3] relates to Candida albicans. Kind of data set: Induction of morphological changes in Candida albicans 904 assessed as hyphal formation by measuring CPH1 level incubated for 4 hrs in presence of fluconazole. The class given is functional, organism-based.
A short description of data set [4]: Binding affinity to recombinant Candida albicans Hsp90 NBD expressed in Escherichia coli by SPR assay.
A further data set relates to HepG2. The data set can be described thus: Cytotoxicity against human HepG2 cell assessed as inhibition of cell growth after 24 hrs by MTT assay. The class given is functional, cell-based. To be noted: HepG2, 24 h. On the technique in general: Formazan colour is commonly taken as a measure of viable cells.
Data set [5] concerns Candida albicans. Kind of data set: Synergistic antibiofilm activity in Candida albicans 904 assessed as downregulation of TEC1 at 32 ug/ml incubated for 24 hrs in presence of fluconazole by RT-PCR analysis. The class given is functional, organism-based. To be noted: dose 32.0 µg/ml.
The test system of data set [6] is Candida albicans. The data set can be described thus: Antifungal activity against fluconazole-resistant Candida albicans 904 assessed as inhibition of fungal growth by checker board microdilution assay. The class given is functional.
A short description of data set [7]: Metabolic stability in human liver microsomes assessed as compound remaining in presence of NADPH cofactor under shaking condition for 10 mins measured after 60 mins by LC-MS/MS analysis. The class given is ADME, Microsome. As to conditions: time 70 min, read-out: Stability.
The subject of data set [8] is Candida albicans. Kind of data set: Synergetic antifungal activity against fluconazole-resistant Candida albicans 311 assessed as fractional inhibitory concentration index in presence of fluconazole by checker board microdilution assay. The class given is functional.
Data set [9] concerns Candida albicans. The data set can be described thus: Synergistic antifungal activity against fluconazole-resistant Candida albicans 904 assessed as inhibition of fungal growth in presence of fluconazole by checker board microdilution assay. The class given is functional.
Data set [10] deals with Candida albicans. The data set can be described thus: Synergetic antifungal activity against fluconazole-resistant Candida albicans 103 assessed as fractional inhibitory concentration index in presence of fluconazole by checker board microdilution assay. The class given is functional.
Data set [11] concerns the target T2, CYP1A2 (Homo sapiens, UniProt P05177).
T2 sequence (P05177 whole entry): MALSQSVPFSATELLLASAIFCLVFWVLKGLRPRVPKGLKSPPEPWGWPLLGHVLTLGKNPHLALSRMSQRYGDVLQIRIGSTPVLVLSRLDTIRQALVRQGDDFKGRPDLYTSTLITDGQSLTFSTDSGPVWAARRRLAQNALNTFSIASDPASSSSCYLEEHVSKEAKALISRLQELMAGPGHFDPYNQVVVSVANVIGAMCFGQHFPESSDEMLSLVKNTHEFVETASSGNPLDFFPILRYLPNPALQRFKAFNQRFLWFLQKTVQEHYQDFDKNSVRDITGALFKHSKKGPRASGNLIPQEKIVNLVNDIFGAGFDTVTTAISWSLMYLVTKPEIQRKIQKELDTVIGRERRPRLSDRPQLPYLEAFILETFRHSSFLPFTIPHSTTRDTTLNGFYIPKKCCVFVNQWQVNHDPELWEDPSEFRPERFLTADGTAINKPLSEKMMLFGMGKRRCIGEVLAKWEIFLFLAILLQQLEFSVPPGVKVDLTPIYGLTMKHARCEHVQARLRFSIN
Kind of data set: Inhibition of CYP1A2 in human liver microsome at 10 uM using phenacetin as substrate incubated for 10 mins in presence of NADPH cofactor by LC-MS/MS analysis. The class given is ADME. As to conditions: liver microsomes, probe phenacetin.

For a further data set, the system named is MCF7. The data set can be described thus: Cytotoxicity against human MCF7 cell assessed as inhibition of cell growth after 24 hrs by MTT assay. The class given is functional, cell-based. As to conditions: MCF7, 24 h.
Another data set addresses Heat shock protein HSP90 (Homo sapiens, UniProt P07900+P08238). The data set can be described thus: Binding affinity to human Hsp90 expressed in Escherichia coli by SPR assay.
Data set [12] is described as follows: Metabolic stability in human liver microsomes assessed as microsomal intrinsic clearance in presence of NADPH cofactor under shaking condition for 10 mins measured after 5 to 60 mins by LC-MS/MS analysis. The class given is ADME, Microsome. To be noted: time 15-70 min.
Data set [13] has as its system Candida albicans. Kind of data set: Synergistic antibiofilm activity against Candida albicans 904 assessed as inhibition of […] metabolism within the biofilm in presence of fluconazole after 24 hrs by XTT reduction assay. The class given is functional.
Data set [14] has as its system Candida albicans. Kind of data set: Antifungal activity against fluconazole-resistant Candida albicans 103 assessed as inhibition of fungal growth by checker board microdilution assay. The class given is functional.
Data set [15] can be described thus: C0 in Sprague-Dawley rat at 10 mg/kg, iv measured upto 24 hrs by LC/MS/MS analysis. The class given is ADME, organism-based. To be noted: in vivo.
Data set [16] has as its target T1, CYP2D6. The data set can be described thus: Inhibition of CYPD6 in human liver microsome at 10 uM using dextromethorphan as substrate incubated for 10 mins in presence of NADPH cofactor and fluconazole by LC-MS/MS analysis. The class given is ADME. As to conditions: liver microsomes, probe dextromethorphan.
For data set [17], the system named is Rattus norvegicus. The data set can be described thus: In vivo antifungal activity against azole resistant Candida albicans 904 infected in rat assessed as reduction in kidney fungal burden at 10 mg/kg, ip administered for 5 days, qd in presence of fluconazole. The class given is functional, organism-based. As to conditions: time 5.0 day.
Data set [18] in a line: MRT (0 to infinity) in Sprague-Dawley rat at 10 mg/kg, iv measured upto 24 hrs by LC/MS/MS analysis. The class given is ADME, organism-based. As to conditions: in vivo.
The target in a further data set is CYP2C19 (Homo sapiens, UniProt P33261). Kind of data set: Inhibition of CYP2C19 in human liver microsome at 10 uM using S-mephenytoin as substrate incubated for 10 mins in presence of NADPH cofactor and fluconazole by LC-MS/MS analysis. The class given is ADME. To be noted: liver microsomes, probe S-mephenytoin.
Data set [19] deals with T2, CYP1A2. The data set can be described thus: Inhibition of CYP1A2 in human liver microsome at 10 uM using phenacetin as substrate incubated for 10 mins in presence of NADPH cofactor and fluconazole by LC-MS/MS analysis. The class given is ADME. To be noted: liver microsomes, probe phenacetin.
For data set [20], the system named is Candida albicans. Kind of data set: Reversal of fluconazole mediated azole resistance Candida albicans 904 assessed as downregulation of CDR1 at 32 ug/ml in presence of fluconazole by RT-PCR. To be noted: dose 32.0 µg/ml. The class given is functional, organism-based.
Data set [21] in a line: Half life in Sprague-Dawley rat at 10 mg/kg, iv measured upto 24 hrs by LC/MS/MS analysis. The class given is ADME, organism-based. To be noted: in vivo.
Data set [22] can be described thus: AUC (0 to t) in Sprague-Dawley rat at 10 mg/kg, iv measured upto 24 hrs by LC/MS/MS analysis. The class given is ADME, organism-based. Set-up: time < 24 hrs, dose 10 mg/kg, route iv. As to conditions: in vivo.
Data set [23] can be described thus: Stability in rat plasma assessed as half life at 120 mins by LC-MS/MS analysis. The class given is ADME, cell-free.
In the next data set the target is CYP3A4 (Homo sapiens, UniProt P08684). Kind of data set: Inhibition of CYP3A4 in human liver microsome at 10 uM using midazolam as substrate incubated for 10 mins in presence of NADPH cofactor and fluconazole by LC-MS/MS analysis. The class given is ADME. As to conditions: liver microsomes, probe midazolam.
A short description of data set [24]: Stability in rat plasma assessed as compound remaining at 120 mins by LC-MS/MS analysis. To be noted: read-out: Stability. The class given is ADME, cell-free.
The test system of data set [25] is Rattus norvegicus. The data set can be described thus: In vivo antifungal activity against azole resistant Candida albicans 904 infected in rat assessed as decrease in fungal invasion at 10 mg/kg, ip in presence of fluconazole administered for 5 days, qd by PAS and HE staining based microscopy. The class given is functional, organism-based. As to conditions: time 5.0 day.

Activity calls are given as the source filed them.

As a reminder, the inhibition is the drop in the measured response relative to a control, in per cent. For orientation: IC50 means the concentration that inhibits the measured activity by half. What is called MIC80 is an inhibitory concentration at the 80% level, which refers to growth in some studies and to a panel of isolates in others. For orientation: Kd means a measure of binding affinity in units of concentration. One may read the MRT inf as the average time that molecules of a dose stay in the body. As usually defined, the half-life is the time needed for the level to fall by half in the phase considered. In general, AUC(0-t) refers to exposure summed from dosing to a finite time, without extrapolation to infinity.

T1 sequence (P10635 whole entry): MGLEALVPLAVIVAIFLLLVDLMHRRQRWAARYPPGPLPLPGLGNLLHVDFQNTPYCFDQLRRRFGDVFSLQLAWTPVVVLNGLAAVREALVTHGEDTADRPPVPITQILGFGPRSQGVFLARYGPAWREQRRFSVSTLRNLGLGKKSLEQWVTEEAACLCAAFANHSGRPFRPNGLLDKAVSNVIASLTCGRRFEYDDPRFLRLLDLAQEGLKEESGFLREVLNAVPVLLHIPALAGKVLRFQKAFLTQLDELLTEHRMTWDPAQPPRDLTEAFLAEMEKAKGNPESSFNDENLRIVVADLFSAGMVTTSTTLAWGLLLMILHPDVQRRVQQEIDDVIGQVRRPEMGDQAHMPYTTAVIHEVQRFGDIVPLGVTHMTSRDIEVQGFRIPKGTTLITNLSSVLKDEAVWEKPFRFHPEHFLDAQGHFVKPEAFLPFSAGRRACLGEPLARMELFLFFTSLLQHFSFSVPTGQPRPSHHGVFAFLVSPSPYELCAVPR
Chain of CYP2C19 (P33261 whole entry): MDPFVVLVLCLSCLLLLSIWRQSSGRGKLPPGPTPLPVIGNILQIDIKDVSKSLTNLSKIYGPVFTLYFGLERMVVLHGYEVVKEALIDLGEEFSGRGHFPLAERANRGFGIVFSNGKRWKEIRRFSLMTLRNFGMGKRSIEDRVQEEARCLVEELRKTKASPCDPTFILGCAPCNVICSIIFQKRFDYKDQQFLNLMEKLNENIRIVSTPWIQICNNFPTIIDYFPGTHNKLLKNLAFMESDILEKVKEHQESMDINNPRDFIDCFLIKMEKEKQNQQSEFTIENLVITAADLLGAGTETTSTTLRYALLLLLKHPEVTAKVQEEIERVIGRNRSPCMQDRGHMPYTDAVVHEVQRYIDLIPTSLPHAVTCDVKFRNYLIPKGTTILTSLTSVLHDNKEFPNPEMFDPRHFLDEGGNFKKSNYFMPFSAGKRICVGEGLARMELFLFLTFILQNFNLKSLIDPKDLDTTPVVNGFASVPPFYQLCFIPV
Chain of CYP3A4 (P08684 whole entry): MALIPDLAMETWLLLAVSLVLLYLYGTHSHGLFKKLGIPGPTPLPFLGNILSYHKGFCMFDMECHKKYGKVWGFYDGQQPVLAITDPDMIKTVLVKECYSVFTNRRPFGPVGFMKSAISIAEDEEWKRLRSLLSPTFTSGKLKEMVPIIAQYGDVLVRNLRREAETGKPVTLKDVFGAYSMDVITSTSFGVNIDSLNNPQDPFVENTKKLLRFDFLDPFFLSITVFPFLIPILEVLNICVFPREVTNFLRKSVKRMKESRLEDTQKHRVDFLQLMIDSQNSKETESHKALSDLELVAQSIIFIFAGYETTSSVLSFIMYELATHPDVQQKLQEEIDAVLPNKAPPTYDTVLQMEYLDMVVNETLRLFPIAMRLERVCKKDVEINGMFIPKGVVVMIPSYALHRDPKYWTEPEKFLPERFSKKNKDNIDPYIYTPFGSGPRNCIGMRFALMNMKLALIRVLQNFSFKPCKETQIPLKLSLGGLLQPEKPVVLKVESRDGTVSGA

For `CNC(=O)c1noc(-c2cc(-c3ccc(C)cc3)c(O)cc2O)c1-c1ccc(CN2CCOCC2)cc1`, the inhibition at 10 min, 10 µM was found to be 86.3% at CYP2D6 [1] and 9.9% on CYP1A2 [11]. Also, the IC50 in the data set on RAW264.7 was 11.3 µM; in the data set on HepG2, > 50 µM; in the data set on MCF7 it was 21.5 µM. The MIC80 was 2 µg/mL with Candida albicans [2], > 64 µg/mL in the data set with Candida albicans [6], 0.25 µg/mL in the data set on Candida albicans [9] and > 64 µg/mL in the data set on Candida albicans [14]. For the same compound, the result with Candida albicans [3] and in the data set with Candida albicans [5] was Active. The results for the Kd (in [4]; at Heat shock protein HSP90) were 0.933 µM and > 25 µM, respectively. Further, the remaining at 1.167 h in data set [7] was determined as 19.1%. For the same compound, the “fractional inhibitory concentration index (FICI)” value in the data set on Candida albicans [8] is listed as 0.062; in the data set on Candida albicans [10] it was 0.047. Besides, the CLint in data set [12] came out at 55.9 µL/min/mg. The MIC50 with Candida albicans [13] stood at 1 µg/mL.
With `CCNC(=O)c1noc(-c2cc(-c3ccc(C)cc3)c(O)cc2O)c1-c1ccc(CN2CCOCC2)cc1`, the C0 at 24 h in data set [15] came out at 4750 ng/mL. Moreover, the inhibition at 10 min, 10 µM on CYP2D6 [16] came out at 36.4%; on CYP2D6 [1], 36.9%; on CYP2C19, 56.9%; on CYP1A2 [19] it was 17.8%; on CYP1A2 [11], 8%; at CYP3A4, 39.3%. For the same compound, the values for the IC50 in the data set on RAW264.7, in the data set with HepG2 and with MCF7 were 17.1 µM, 17.4 µM and 34.1 µM, respectively. Also, the MIC80 is 1 µg/mL in the data set with Candida albicans [2], > 64 µg/mL with Candida albicans [6], 0.25 µg/mL in the data set on Candida albicans [9] and > 64 µg/mL in the data set on Candida albicans [14]. The outcome in the data set on Candida albicans [3], with Candida albicans [5], in the data set on Rattus norvegicus [17], with Candida albicans [20] and in the data set with Rattus norvegicus [25] was Active. In addition, the remaining at 1.167 h in data set [7] is 27.4%. Also, the MRT inf in data set [18] was determined as 1.12 h. Also, the “fractional inhibitory concentration index (FICI)” value with Candida albicans [8] and with Candida albicans [10] was 0.035 in each case. Besides, the half-life in data set [21] was 1.26 h; in data set [23] it was > 4.8 h. Also, in data set [12], the CLint was 43.2 µL/min/mg. The compound also showed an AUC(0-t) at 24 h in [22] of 3010 ng·h/mL. In addition, the MIC50 in the data set with Candida albicans [13] stood at 0.25 µg/mL. The remaining at 2 h in data set [24] came to 99.4%.

For the origin of these results see ChEMBL document CHEMBL5154804, “Species-Selective Targeting of Fungal Hsp90: Design, Synthesis, and Evaluation of Novel 4,5-Diarylisoxazole Derivatives for the Combination Treatment of Azole-Resistant Candidiasis” (J Med Chem, 2022).
